Laboratory results reported in the SangsterLogP compilation.

Compound	logP
CCOCCOC(=O)C(C)Oc1ccc(Oc2ncc(C(F)(F)F)cc2Cl)cc1 (stereo unspecified)	4.33
O=S(=O)(c1ccc(Cl)cc1)c1cc(Cl)c(Cl)cc1Cl	4.61
CCNc1nc(Cl)nc(NCC)n1	2.1
CON(C)C(=O)Nc1ccc(Br)cc1	2.41
CCSCCSP(=O)(OC)OC	1.32
O=c1oc2ccccc2c(O)c1C1CC(c2ccc(OCc3ccc(C(F)(F)F)cc3)cc2)Cc2ccccc21 (stereo unspecified)	4.7
CN(C)C(=O)Nc1cc(C(C)(C)C)on1	1.98
O=C(Nc1ccc(Cl)cc1C(O)c1ccccc1)c1ccncc1 (stereo unspecified)	3.13
CCCCC(CC)N1C(=O)C2C3C=CC(C3)C2C1=O (stereo unspecified)	3.8
COP(=S)(OC)Oc1ccc(C#N)cc1	2.65
CCCOC(=O)c1ccc(C(=O)OCCC)nc1	3.57
COc1ccc(/C(=C\C(=O)N2CCOCC2)c2ccc(Cl)cc2)cc1OC	2.73
CC1(C)[C@H](C(=O)O[C@H](C#N)c2cccc(Oc3ccccc3)c2)[C@@H]1C(Br)C(Br)(Br)Br (stereo partly specified)	5
CCOP(=S)(OCC)Oc1nc(Cl)n(C(C)C)n1	2.99
CCC(=O)Nc1ccc(Cl)c(Cl)c1	3.3
CC1(C)C(C=C(Cl)Cl)C1C(=O)OC(C#N)c1ccc(F)c(Oc2ccccc2)c1 (stereo unspecified)	5.93
O=C(NC(=O)c1ccccc1Cl)Nc1ccc(OC(F)(F)F)cc1	4.91
COC(=O)C(C)N(C(=O)c1ccco1)c1c(C)cccc1C (racemic)	2.7
CCOCN(C(=O)CCl)c1c(C)cccc1CC	3.03
C/C=C/C(=O)Oc1c(C(C)CCCCCC)cc([N+](=O)[O-])cc1[N+](=O)[O-] (stereo unspecified)	4.54
COCC(C)N(C(=O)CCl)c1c(C)csc1C (stereo unspecified)	2.15

Compound	logP
O=[N+]([O-])c1ccc(NS(=O)(=O)c2ccc(Cl)c(C(F)(F)F)c2)c(Cl)c1	2.4
CCC1OCC(COc2ccc(Oc3ccccc3)cc2)O1 (stereo unspecified)	4.3
CC(Oc1ccc(Oc2ncc(Cl)cc2Cl)cc1)C(=O)N1CCCO1 (stereo unspecified)	3.36
O=C1C2CC=CCC2C(=O)N1SC(Cl)(Cl)Cl (stereo unspecified)	2.78
C=CCCCOC(=O)C(CC)N(Cc1ccco1)C(=O)n1ccnc1 (stereo unspecified)	3
Cc1cnc(C2=NC(C)(C(C)C)C(=O)N2)c(C(=O)O)c1 (stereo unspecified)	0.39
CCOC1Oc2ccc(OS(C)(=O)=O)cc2C1(C)C (stereo unspecified)	2.7
COCCN(C(=O)CCl)c1c(C)cccc1C	2.2
CC1(C)CON(Cc2ccccc2Cl)C1=O	2.5
CCOP(=S)(OCC)Oc1ccc(=O)n(-c2ccccc2)n1	3.2
CN(C)C(=O)Nc1ccc(Cl)c(Cl)c1	2.85
OC1(c2ccc(Cl)cc2)CCCCCC1n1cncn1 (stereo unspecified)	3.02
CC(C)OC(=O)C(O)(c1ccc(Br)cc1)c1ccc(Br)cc1	5.4
CCCCCOC(=O)COc1cc(N2C(=O)C3=C(CCCC3)C2=O)c(F)cc1Cl	4.99
C[C@@H](Oc1ccc(Oc2ccc(C#N)cc2F)cc1)C(=O)O	3.31
CC(C)N1C(=O)N(c2ccccc2)CS/C1=N\C(C)(C)C	4.3
CCN(CC)C(=O)SCc1ccccc1Cl	3.43
CCSCCSP(=S)(OC)OC	3.46
CC1(C)CCC(Cc2ccc(Cl)cc2)C1(O)Cn1cncn1 (stereo unspecified)	3.93
CCOC(=O)C1(C)OC(=O)N(c2cc(Cl)cc(Cl)c2)C1=O (stereo unspecified)	3.3
C=CCNC(=O)CN(CC=C)C(=O)C(Cl)Cl	1

Compound	logP
O=C1C(Cl)=C(Cl)C(=O)N1c1ccc(F)cc1	2.3
CC(C)=CC1C(C(=O)OCc2coc(Cc3ccccc3)c2)C1(C)C (stereo unspecified)	5.4
CCOC(=O)[C@@H](C)Oc1ccc(Oc2nc3ccc(Cl)cc3o2)cc1	4.58
C#CCOS(=O)OC1CCCCC1Oc1ccc(C(C)(C)C)cc1 (stereo unspecified)	3.73
COC(=O)c1c(Cl)c(Cl)c(C(=O)OC)c(Cl)c1Cl	4.28
CCOP(=O)(SC(C)CC)SC(C)CC (stereo unspecified)	3.9
CC(C)=CC1C(C(=O)OCN2C(=O)C3=C(CCCC3)C2=O)C1(C)C (stereo unspecified)	4.49
CCCCOC(=O)[C@@H](C)Oc1ccc(Oc2ccc(C(F)(F)F)cn2)cc1	4.5
CCCSP(=O)(OCC)Oc1ccc(Br)cc1Cl (stereo unspecified)	4.44
CCOC(=O)c1cn2nc(OP(=S)(OCC)OCC)cc2nc1C	3.8
CC(C)N(Cc1ccccc1)C(=O)C(C)(C)C	3
CCSC(C)CC1CC(=O)C(/C(CC)=N/OC/C=C/Cl)=C(O)C1 (stereo unspecified)	4.19
CCNP(=S)(OC)O/C(C)=C/C(=O)OC(C)C (stereo unspecified)	3.82
NC(=O)c1nc(-c2ccccc2)n(-c2ccc(Cl)c(COCC(F)(F)C(F)(F)F)c2)n1	3.27
CCOC(=O)C(Cl)Cc1cc(-n2nc(C)n(C(F)F)c2=O)c(F)cc1Cl (stereo unspecified)	3.36
O=C1c2ccccc2C(=O)N1SC(Cl)(Cl)Cl	3.11
CCN(CC)C(=O)C(C)Oc1cccc2ccccc12 (stereo unspecified)	3.3
CN(C)C(=O)Nc1ccc(-n2nc(C(C)(C)C)oc2=O)c(Cl)c1	2.51
CC(C)C1CCC(Cc2ccc(Cl)cc2)C1(O)Cn1cncn1 (stereo unspecified)	4.21
